# Target: T1, human FASN (Homo sapiens, UniProt P49327)
# T1 construct: was purified from SKBR3 cells using procedures modified from those in Jayakumar et al; endogenous in cells; host or cells: SKBR3 human breast cancer cells (ATCC); Endogenous enzyme purified by ammonium sulfate precipitation and a mono Q column
# Test: FASN Scintillation Proximity Flashplate Assay
# Assay type: biochemical
# Details: human FASN purified from SKBR3 cells; unstarred symbols
# Description: Human FASN protein (SEQ ID NO. 1) was purified from SKBR3 cells using procedures modified from those in Jayakumar et al. PNAS 1995, 92:8695-8699. SKBR3 cells were obtained from ATCC and grown in DMEM high glucose medium supplemented with 10% FBS, 1 μg/mL bovine pancreas insulin, 100 U/mL penicillin and 100 µg/mL streptomycin. The confluent cells were trypsinized and washed three times with PBS buffer before frozen in liquid N2 and stored at −80° C. Frozen cells were thawed on ice and resuspended in lysis buffer (25 mM Tris-HCl, pH 7.0, 15 mM NaCl, 1 mM EDTA, and 1 mM DTT) with protease inhibitors. The cells were lysed by sonication, and the cell debris was removed by centrifugation at 20,000 rpm for 30 min. To the supernatant, neutralized saturated ammonium sulfate solution was added to a final concentration of 35%. The solution was left on ice for 1 hr, and the precipitated proteins were harvested by centrifugation at 20,000 rpm for 30 min. The proteins were redissolved in lysis buffer without NaCl and loaded on a mono Q column. Bound proteins were eluted with a linear gradient of NaCl in lysis buffer. Each fraction was analyzed by SDS-PAGE and FASN NADPH consumption assay. The fractions containing FASN were pooled and concentrated to 2-3 mg/mL. Glycerol was added to 20%, and the protein was frozen in liquid N2 and stored at −80° C.
# Acetyl-coenzyme A, malonyl-coenzyme A, NADPH, bovine gamma globulin, and ORLISTAT were purchased from Sigma (St. Louis, Mo.). Tris(2-carboxyethyl) phosphine hydrochloride (TCEP) was purchased from Pierce Biotechnologies (Rockford, Ill.). [^3H]-acetyl-coenzyme A was purchased from Moravek Biochemicals (Brea, CA). FlashPlate™ PLUS phospholipid 96-well scintillant coated microplates were purchased from Perkin Elmer Life and Analytical Sciences (Shelton, CT). The method of the FASN Scintillation Proximity FlashPlate assay is similar to that described in Weiss and Glickman Assay Drug Dev Technol 2003, 1:161-6. In a 96-well polypropylene microplate, a dilution series (typical concentrations 60 nM-1.0 mM) of test compounds were prepared in DMSO followed by a 20-fold dilution into FASN assay buffer (50 mM potassium phosphate, pH 7.0, 1.0 mM EDTA, 0.01% NP-40), of which 5.0 μL each was transferred to a FlashPlate® PLUS 96-well plate and mixed with 35 μL FASN assay buffer plus 0.5 mg/mL bovine gamma globulin and 1 mM TCEP. FASN protein (10 μL, 10 nM) was added per well, and the microplate was incubated at 37° C. for 30 min. 10 μL of 20 mM NADPH was added, and the reaction was initiated by addition of […] substrate mixture to final concentrations of 1 nM FASN, 100 μM acetyl-coenzyme A, 6 μCi [^3H]-acetyl-coenzyme A, 300 μM malonyl-coenzyme A, 2 mM NADPH, 0.5 mg/mL bovine gamma globulin, and 1 mM TCEP in a volume of 100 μL per well. Assay plates were incubated for 2 hr at 37° C. and the reaction was stopped with 2 μL of 2.5 mM stock solution of ORLISTAT in DMSO to ˜50 μM. The plates were read in a Wallac 1450 Microbeta Plus liquid scintillation counter (Perkin Elmer, Waltham, Mass.), and counts per minute (CPM) were collected over 2 min. Each inhibitor well CPM was compared to the maximum FASN enzyme activity (Max) CPM and the background (Min) CPM, as measured by omission of FASN enzyme in the background well. % Inhibition values were calculated, and curves were fitted by a four-parameter logistic function to yield IC50 values:
# Compounds were assayed as inhibitors of human FASN using the above-described FASN Scintillation Proximity Flashplate Assay (IC50; nM) or FASN NADPH Consumption Assay (*) (IC50; nM). The corresponding activity of the isolated compound is also provided along with the measured mass (ES^+).
# T1 sequence (P49327 whole entry): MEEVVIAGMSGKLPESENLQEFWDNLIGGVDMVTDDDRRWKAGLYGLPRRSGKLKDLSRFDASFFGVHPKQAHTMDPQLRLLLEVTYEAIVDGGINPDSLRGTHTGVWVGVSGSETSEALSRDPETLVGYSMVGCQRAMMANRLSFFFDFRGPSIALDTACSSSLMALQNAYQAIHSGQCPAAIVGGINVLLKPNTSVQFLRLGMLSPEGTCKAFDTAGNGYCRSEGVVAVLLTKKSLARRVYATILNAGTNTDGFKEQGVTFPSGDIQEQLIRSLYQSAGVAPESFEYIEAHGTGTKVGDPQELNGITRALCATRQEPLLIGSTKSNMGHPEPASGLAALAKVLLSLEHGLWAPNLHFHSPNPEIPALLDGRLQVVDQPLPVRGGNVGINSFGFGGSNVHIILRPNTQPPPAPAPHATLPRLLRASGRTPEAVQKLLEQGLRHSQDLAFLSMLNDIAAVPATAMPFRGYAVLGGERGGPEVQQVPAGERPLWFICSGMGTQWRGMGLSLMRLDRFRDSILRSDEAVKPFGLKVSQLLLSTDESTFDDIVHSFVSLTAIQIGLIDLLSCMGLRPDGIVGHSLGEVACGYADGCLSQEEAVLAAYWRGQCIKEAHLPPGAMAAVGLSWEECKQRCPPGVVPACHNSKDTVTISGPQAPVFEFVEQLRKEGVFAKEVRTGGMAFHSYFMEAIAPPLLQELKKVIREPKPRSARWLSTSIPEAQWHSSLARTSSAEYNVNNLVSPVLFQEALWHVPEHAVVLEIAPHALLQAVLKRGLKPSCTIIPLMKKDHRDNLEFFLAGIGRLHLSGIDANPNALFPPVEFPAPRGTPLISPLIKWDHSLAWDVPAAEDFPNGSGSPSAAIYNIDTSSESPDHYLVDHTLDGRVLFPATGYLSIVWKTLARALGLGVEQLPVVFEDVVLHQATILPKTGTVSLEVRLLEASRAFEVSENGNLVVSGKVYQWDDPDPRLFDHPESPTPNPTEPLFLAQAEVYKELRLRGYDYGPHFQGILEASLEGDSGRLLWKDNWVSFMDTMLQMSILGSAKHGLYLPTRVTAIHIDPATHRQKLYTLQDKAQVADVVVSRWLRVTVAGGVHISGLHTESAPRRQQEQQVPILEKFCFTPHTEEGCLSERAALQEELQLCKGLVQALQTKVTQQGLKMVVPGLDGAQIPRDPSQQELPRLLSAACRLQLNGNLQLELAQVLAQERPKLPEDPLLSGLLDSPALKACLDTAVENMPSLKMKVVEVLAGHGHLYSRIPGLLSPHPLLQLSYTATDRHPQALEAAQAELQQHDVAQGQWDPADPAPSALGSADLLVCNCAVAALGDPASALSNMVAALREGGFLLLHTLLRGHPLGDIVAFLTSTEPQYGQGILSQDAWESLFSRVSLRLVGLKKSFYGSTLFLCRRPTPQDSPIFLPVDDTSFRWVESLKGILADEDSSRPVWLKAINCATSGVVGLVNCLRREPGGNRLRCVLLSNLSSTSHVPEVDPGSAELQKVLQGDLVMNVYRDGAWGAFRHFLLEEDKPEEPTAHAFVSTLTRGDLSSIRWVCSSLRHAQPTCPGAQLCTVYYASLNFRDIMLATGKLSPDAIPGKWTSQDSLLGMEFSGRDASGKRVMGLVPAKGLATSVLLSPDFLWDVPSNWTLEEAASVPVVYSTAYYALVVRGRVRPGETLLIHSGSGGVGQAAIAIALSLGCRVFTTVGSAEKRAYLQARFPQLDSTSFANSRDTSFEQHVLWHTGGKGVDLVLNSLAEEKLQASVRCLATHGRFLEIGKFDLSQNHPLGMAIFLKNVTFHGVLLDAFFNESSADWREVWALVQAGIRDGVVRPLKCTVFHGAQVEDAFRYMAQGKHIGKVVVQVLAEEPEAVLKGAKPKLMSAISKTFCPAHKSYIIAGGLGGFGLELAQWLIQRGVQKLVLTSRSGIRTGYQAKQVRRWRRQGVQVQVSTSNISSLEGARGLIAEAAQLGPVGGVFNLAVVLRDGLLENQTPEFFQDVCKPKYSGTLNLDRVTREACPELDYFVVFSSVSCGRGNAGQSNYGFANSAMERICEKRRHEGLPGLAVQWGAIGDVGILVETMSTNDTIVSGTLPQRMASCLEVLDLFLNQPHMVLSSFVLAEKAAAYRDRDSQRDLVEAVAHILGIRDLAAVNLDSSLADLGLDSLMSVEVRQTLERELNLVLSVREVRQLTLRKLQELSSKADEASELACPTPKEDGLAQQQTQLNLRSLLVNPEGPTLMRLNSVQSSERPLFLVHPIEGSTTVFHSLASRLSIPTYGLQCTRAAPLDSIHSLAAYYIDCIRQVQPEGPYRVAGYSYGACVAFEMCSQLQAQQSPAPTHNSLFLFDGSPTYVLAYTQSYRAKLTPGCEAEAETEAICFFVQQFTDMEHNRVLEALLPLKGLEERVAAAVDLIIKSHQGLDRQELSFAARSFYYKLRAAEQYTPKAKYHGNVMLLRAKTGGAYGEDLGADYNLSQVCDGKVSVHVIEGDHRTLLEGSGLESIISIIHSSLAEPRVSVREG
row,SMILES,IC50
1,CCCN(C(=O)n1nnn(-c2ccccc2Cl)c1=O)C1CCCC1,0.2 to 5 µM
2,CCN(C(=O)n1nnn(-c2c(Cl)cccc2Cl)c1=O)c1ccc(C(=O)OC)cc1,0.015 to 0.1 µM
3,CCN(C(=O)n1nnn(-c2c(F)cccc2OC)c1=O)c1ccc(OC)c(C(=O)O)c1,0.015 to 0.1 µM
4,COc1cccc(F)c1-n1nnn(C(=O)N(c2ccccc2)C2CCCCC2)c1=O,0.015 to 0.1 µM
5,CN(C)N(C(=O)n1nnn(-c2ccccc2Cl)c1=O)C1=CCCCCC1,0.1 to 0.2 µM
6,COc1ccc(N(C(=O)n2nnn(-c3c(F)cccc3C(=O)N3CCOCC3)c2=O)C(C)C)cc1C(=O)O,0.2 to 5 µM
7,COc1cccc(F)c1-n1nnn(C(=O)N(c2cccc(C(=O)OCc3ccccc3)c2)C(C)(C)C)c1=O,0.2 to 5 µM
8,COCCOc1ccc(N(C(=O)n2nnn(-c3c(F)cccc3OCCOC)c2=O)C2CCCCC2)cc1C(=O)O,0.015 to 0.1 µM
9,CCCN(CC1CC1)C(=O)n1nnn(-c2ccccc2Cl)c1=O,0.2 to 5 µM
10,CCN(C(=O)n1nnn(-c2ccccc2OC)c1=O)c1cc(C(=O)O)ccc1OCCc1ccccc1,< 0.015 µM
11,COc1cccc(F)c1-n1nnn(C(=O)N(c2ccc(OCCc3ccccc3)c(C(=O)O)c2)C(C)C)c1=O,0.015 to 0.1 µM
12,COc1ccc(N(C(=O)n2nnn(-c3c(F)cccc3F)c2=O)C2CCCCC2)cc1C(=O)O,< 0.015 µM
13,COc1cc(OC)c(N(C(=O)n2nnn(-c3c(F)cccc3F)c2=O)C2CCCCC2)cc1C(=O)O,< 0.015 µM
14,CN(C)N(C(=O)n1nnn(-c2c(Cl)cccc2Cl)c1=O)C1=CCCC1,0.015 to 0.1 µM
15,CCN(C(=O)n1nnn(-c2c(Cl)cccc2Cl)c1=O)c1ccc(C(=O)O)c(Cl)c1,< 0.015 µM
16,CC(C)N(C(=O)n1nnn(-c2c(F)cccc2F)c1=O)c1ccc(N)c(C(=O)OCc2ccccc2)c1,< 0.015 µM
17,COc1cc(Oc2ccccc2)c(N(C(=O)n2nnn(-c3c(F)cccc3F)c2=O)C2CCCC2)cc1C(=O)O,< 0.015 µM
18,CCCCOc1ccc(C(=O)O)cc1N(CC)C(=O)n1nnn(-c2c(F)cccc2OC)c1=O,< 0.015 µM

# The remaining lines, values ahead:
row,IC50,SMILES
1,< 0.015 µM,COc1ccc(N(C(=O)n2nnn(-c3c(F)cccc3OC)c2=O)C2CCCC2)cc1C(=O)O
2,< 0.015 µM,CCOC(=O)c1cc(C)n(-c2ccc(N(C(=O)n3nnn(-c4c(F)cccc4F)c3=O)C3CCCCC3)cc2C(=O)OCc2ccccc2)n1
3,< 0.015 µM,COc1ccc(COC(=O)c2cc(N(C(=O)n3nnn(-c4c(F)cccc4OC)c3=O)C(C)C)ccc2OCCc2ccccc2)cc1
4,< 0.015 µM,CCNC(=O)Nc1ccc(N(CC)C(=O)n2nnn(-c3c(F)cccc3F)c2=O)c(F)c1
5,< 0.015 µM,O=C(O)[C@@H]1CCCN1c1ccc(N(C(=O)n2nnn(-c3c(F)cccc3F)c2=O)C2CCCCC2)cc1
6,< 0.015 µM,COC(=O)c1cc(N(C(=O)n2nnn(-c3c(F)cccc3F)c2=O)C2CCCCC2)ccc1OC
7,< 0.015 µM,CC(C)(C)OC(=O)N1CCN(c2ccc(N(C(=O)n3nnn(-c4c(F)cccc4F)c3=O)C3CCCCC3)cc2C(=O)OCc2ccccc2)CC1
8,< 0.015 µM,COCCOCOc1ccc(N(C(=O)n2nnn(-c3c(F)cccc3F)c2=O)C2CCCCC2)cc1C(=O)O
9,< 0.015 µM,CC(C)N(C(=O)n1nnn(-c2c(F)cccc2F)c1=O)c1ccc(Cl)c(C(=O)O)c1
10,< 0.015 µM,CCOC(=O)c1cc(C)n(-c2ccc(N(C(=O)n3nnn(-c4c(F)cccc4F)c3=O)C3CCCCC3)cc2C(=O)O)n1
11,< 0.015 µM,CC(=O)N1CCN(c2ccc(N(C(=O)n3nnn(-c4c(F)cccc4F)c3=O)C3CCCCC3)cc2C(=O)O)CC1
12,< 0.015 µM,COc1cccc(F)c1-n1nnn(C(=O)N(c2cccc(C(=O)OCc3ccccc3)c2)C2CC2)c1=O
13,< 0.015 µM,CC(C)N(C(=O)n1nnn(-c2c(F)cccc2F)c1=O)c1ccc(N(S(C)(=O)=O)S(C)(=O)=O)c(C(=O)O)c1
14,< 0.015 µM,CCN(C(=O)n1nnn(-c2c(F)cccc2F)c1=O)c1ccccc1Oc1ccccc1
15,< 0.015 µM,COc1ccc(N(C(=O)n2nnn(-c3c(F)cccc3OCC(OC)OC)c2=O)C2CCCCC2)cc1C(=O)O
16,< 0.015 µM,COc1ccc(N(C(=O)n2nnn(-c3c(F)cccc3F)c2=O)C2CCCCC2)cc1C(=O)N(C)C
17,< 0.015 µM,CCCCOc1ccc(C(=O)O)cc1N(CC)C(=O)n1nnn(-c2c(F)cccc2F)c1=O

# From patent US9346769B2, “Tetrazolones as inhibitors of fatty acid synthase” (Infinity Pharmaceuticals, Inc., priority 2010, dated 2016)
